Columns and labels:
[1] = biological target: M2 Protein from Influenza A virus (Influenza A virus, UniProt P06821); format: binding; details: spectra with AMT vs without AMT, FIG. 6
gramicidin A channel [2] = assay: 17O solid-state NMR of 17O-[D-Leu10]-gA in AAO-aligned DMPC bilayers, reversible ion binding; details: 2.4 M KCl, approx. double occupancy of K+ in the dimeric channel, channel perpendicular to B0, 19.6 T, 40° C., reversible by EDTA wash
Protocol: The ^17O-[D-Leu^10]-gA was prepared as described previously (29), resulting in material with 57% enrichment of ^17O isotope (H^172O from Cambridge Isotope Labs, Andover, Mass.). The dry peptide was codissolved with DMPC in a 1:16 molar ratio in benzene/ethanol (20:1 v/v) solvent (28) and pipetted onto the nanoporous support. The organic solution containing gA and DMPC was rapidly adsorbed. This commercial substrate, “20 nm” Anodisc® 13 membranes (Whatman International), is shaped as disks 13 mm in diameter that are approximately […] thick. For ^31P NMR experiments AAO disks were cut into strips less than 5 mm in width to fit into a rectangular approximately 600 μL sample coil. We have also designed a special coil for ^17O NMR that required no disk cutting. Typically, stacks of up to 40 AAO strips or disks were employed for NMR measurements. The disks have a well-aligned through-film porous structure with nanochannels directed perpendicular to the disk outer surface.
The manufacturer specifies that these nanoporous substrates have a 20-nm filtration diameter cutoff. […]
The Leu^10 carbonyl in the gramicidin A pore is one of three carbonyl sites involved in K^+ binding. We have monitored K^+ binding using the ^17O resonance of selectively labeled Leu^10 carbonyls of gramicidin A dimers incorporated into DMPC bilayers and aligned using the AAO method. […]

gramicidin A channel [3] = details: DMPC-gA aligned by glass slides, channel parallel to B0; cited from earlier work

Sequence of M2 Protein from Influenza A virus (P06821 whole entry): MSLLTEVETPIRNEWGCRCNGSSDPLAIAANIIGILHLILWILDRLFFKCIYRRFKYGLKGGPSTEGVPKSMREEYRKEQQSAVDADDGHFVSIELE

Structure (SMILES) | NMR signal changes upon binding drug (spectral shift of M2 protein) [1] | downfield shift Δδ of the 17O resonance of Leu10 carbonyl upon ion binding (δ⊥) (gramicidin A channel [2]) | shift of the 17O resonance at δ∥ upon K+ binding (gramicidin A channel [3]) [ppm]
NC12CC3CC(CC(C3)C1)C2 [Amantadine] | dramatic changes |  | 
[Cl-].[K+] [KCl] |  | ≈ 18 ppm | 40
